Calls of active or inactive are those of the source.
How the values were obtained:
[1] = Luminescence Cell-Based Dose Response to Identify Activators of 5'UTR Stem-Loop Driven Prion Protein mRNA Translation in H4-C Neuroglioblastoma Cells. [Related pubchem assays: 1829 (Project Summary), 1814 (Primary HTS)]; assay type: functional
[2] = Luminescence Cell-Based Dose Confirmation to Identify Activators of 5'UTR Stem-Loop Driven Alpha-Synuclein mRNA Translation in H4 Neuroglioblastoma Cells. [Related pubchem assays: 1829 (Project Summary), 1814 (Primary HTS)]; assay type: functional
[3] = Luminescence Cell-Based Dose Response HTS to Identify Activators of Luciferase Translation or Activity in H4 […] Cells. [Related pubchem assays: 1829 (Project Summary), 1814 (Primary HTS)]; assay type: functional
[4] = Luminescence Cell-Based Dose Response to Identify Activators of Luciferase Translation or Activity in H4-C Neuroglioblastoma Cells. [Related pubchem assays: 1829 (Project Summary), 1814 (Primary HTS)]; assay type: functional
H4 = experiment: Luminescence Cell-Based Dose Response HTS to Identify Activators of 5'UTR Stem-Loop Driven Prion Protein mRNA Translation in H4 Neuroglioblastoma Cells. [Related pubchem assays: 1829 (Project Summary), 1814 (Primary HTS)]; assay type: functional; details: Homo sapiens
[5] = Luminescence Cell-Based Dose Confirmation HTS to Identify Activators of 5'UTR Stem-Loop Driven Alpha-Synuclein mRNA Translation in H4 Neuroglioblastoma Cells. [Related pubchem assays: 1829 (Project Summary), 1814 (Primary HTS)]; assay type: functional
[6] = molecular target: T1, Eukaryotic translation initiation factor 2-alpha kinase 3 (Homo sapiens, UniProt Q9NZJ5); experiment: Dose response cell-based high-throughput screening assay to measure PERK inhibition. [Related pubchem assays: 1416 ]; assay type: functional
T1 sequence (Q9NZJ5 whole entry): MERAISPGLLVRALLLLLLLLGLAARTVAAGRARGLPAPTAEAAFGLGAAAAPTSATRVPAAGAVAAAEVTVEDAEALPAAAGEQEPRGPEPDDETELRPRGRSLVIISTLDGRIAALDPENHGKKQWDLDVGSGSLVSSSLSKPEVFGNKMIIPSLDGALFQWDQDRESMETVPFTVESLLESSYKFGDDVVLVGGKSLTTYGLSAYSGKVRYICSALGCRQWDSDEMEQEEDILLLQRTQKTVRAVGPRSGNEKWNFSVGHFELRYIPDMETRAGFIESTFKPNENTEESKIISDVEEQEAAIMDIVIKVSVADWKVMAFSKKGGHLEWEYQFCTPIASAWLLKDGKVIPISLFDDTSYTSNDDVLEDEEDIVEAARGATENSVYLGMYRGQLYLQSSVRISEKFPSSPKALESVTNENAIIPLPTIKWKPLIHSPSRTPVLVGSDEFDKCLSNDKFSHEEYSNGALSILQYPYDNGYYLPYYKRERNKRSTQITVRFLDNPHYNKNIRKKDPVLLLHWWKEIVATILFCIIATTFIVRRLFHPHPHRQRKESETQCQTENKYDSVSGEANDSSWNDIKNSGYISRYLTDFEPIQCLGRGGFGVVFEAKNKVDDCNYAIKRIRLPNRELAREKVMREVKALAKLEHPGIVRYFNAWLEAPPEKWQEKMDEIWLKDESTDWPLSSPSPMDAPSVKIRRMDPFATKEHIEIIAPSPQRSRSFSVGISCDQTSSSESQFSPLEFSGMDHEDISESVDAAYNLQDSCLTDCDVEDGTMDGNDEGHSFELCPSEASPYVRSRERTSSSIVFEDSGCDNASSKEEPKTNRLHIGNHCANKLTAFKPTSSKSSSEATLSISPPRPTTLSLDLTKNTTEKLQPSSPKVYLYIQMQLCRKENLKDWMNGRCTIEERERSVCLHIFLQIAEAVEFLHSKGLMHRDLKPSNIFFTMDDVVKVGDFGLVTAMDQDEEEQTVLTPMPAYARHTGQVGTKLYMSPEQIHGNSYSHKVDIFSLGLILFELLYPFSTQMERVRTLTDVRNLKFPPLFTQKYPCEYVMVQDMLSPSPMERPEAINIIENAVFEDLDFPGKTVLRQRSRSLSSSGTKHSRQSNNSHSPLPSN

[7] = molecular target: T1, Eukaryotic translation initiation factor 2-alpha kinase 3; experiment: Counterscreen assay for PERK inhibitors: Dose response cell-based high throughput screening assay to measure inhibition of PERK at 6 hours. [Related pubchem assays: 1522, 1416 ]; assay type: functional
Procathepsin L = Procathepsin L (Homo sapiens, UniProt P07711)
Aspartyl aminopeptidase = Aspartyl aminopeptidase (Plasmodium falciparum 3D7, UniProt Q8I2J3)
[8] = molecular target: T2, Heat shock factor protein 1 (Mus musculus, UniProt P38532); experiment: decrease of HSF1-responsive luciferase luminescence – cell-based, NIH3T3, dose retest, confirmation (AID 2382); assay type: functional;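 also: NIH3T3 fibroblasts with HSF1-driven luciferase reporter stressed by proteasome inhibitor MG132; luminescence from HSF1-driven luciferase expression after 8 hours of MG132 stress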
T2 sequence (P38532 whole entry): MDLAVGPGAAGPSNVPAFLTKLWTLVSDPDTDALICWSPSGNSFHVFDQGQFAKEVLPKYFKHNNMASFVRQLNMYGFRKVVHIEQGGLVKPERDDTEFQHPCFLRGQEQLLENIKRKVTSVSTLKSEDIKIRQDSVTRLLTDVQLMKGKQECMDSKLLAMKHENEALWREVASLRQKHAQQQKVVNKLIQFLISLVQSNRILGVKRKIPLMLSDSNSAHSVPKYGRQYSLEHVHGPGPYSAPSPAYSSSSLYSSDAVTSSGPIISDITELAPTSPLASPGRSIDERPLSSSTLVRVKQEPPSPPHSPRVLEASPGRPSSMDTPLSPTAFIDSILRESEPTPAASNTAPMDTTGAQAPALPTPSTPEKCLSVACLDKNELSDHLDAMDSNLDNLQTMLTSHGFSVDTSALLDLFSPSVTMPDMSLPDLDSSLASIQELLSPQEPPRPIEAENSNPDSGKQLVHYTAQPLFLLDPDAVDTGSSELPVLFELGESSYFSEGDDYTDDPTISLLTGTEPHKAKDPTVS

Streptokinase A = molecular target: T3, Streptokinase A (Streptococcus pyogenes serotype M1, UniProt P10520); experiment: viability-normalized secreted streptokinase activity reduction – plasminogen activation absorbance, OD405, dose response (AID 1914); assay type: functional, Streptococcus pyogenes M1 GAS;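 also: secreted streptokinase activity via plasminogen activation per viability signal from cell pellet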
T3 sequence (P10520 whole entry): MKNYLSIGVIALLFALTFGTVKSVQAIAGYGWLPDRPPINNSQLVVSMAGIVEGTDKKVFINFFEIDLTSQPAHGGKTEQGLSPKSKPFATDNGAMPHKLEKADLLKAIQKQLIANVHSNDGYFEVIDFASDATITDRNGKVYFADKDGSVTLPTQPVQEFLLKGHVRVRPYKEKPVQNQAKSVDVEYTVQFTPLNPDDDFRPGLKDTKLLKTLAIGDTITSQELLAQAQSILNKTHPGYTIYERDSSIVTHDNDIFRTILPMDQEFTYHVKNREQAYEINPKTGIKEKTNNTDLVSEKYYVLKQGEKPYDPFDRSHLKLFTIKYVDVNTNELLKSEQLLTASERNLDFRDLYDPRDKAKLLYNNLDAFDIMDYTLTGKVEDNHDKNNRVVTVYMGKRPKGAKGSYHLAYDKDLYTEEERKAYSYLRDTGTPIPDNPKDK

Streptococcus [9] = experiment: GAS UMAA2166 growth inhibition – luminescence, BacTiterGlo, counter-screen for streptokinase expression inhibitor project, dose response (AID 1915); assay type: functional, organism-based;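 also: potency for reduction of bacterial viability or growth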
Streptococcus [10] = experiment: Luminescence Microorganism-Based Dose Response Follow up to Identify Compounds Cytotoxic to Streptococcus. [Related pubchem assays: 1677 (Project Summary), 1915, 1914, 1902 (Retest at Dose), 1900 (Counter Screen), 1662 (Primary HTS)]; assay type: functional, organism-based
[11] = test system: Streptococcus sp. 'group A'; experiment: Streptococcus pyogenes SK(-)GAS viability under kanamycin – luminescence, BacTiterGlo, confirmation, counter-screen for streptokinase expression inhibitor project, dose response (AID 1900); assay type: functional, organism-based
Cytochrome P450 2D6 = Cytochrome P450 2D6 (Homo sapiens, UniProt P10635); experiment: qHTS Assay for Inhibitors and Substrates of Cytochrome P450 2D6. [Related pubchem assays: 410 ]; assay type: ADME; details: read-out: Potency
[12] = molecular target: T4, Peroxisome proliferator-activated receptor gamma/Nuclear receptor corepressor 2 (Homo sapiens, UniProt P37231+Q9Y618); experiment: Counterscreen for NR2E3 inverse agonists: TR-FRET-based biochemical high throughput dose response assay to identify inverse agonists of the interaction between peroxisome proliferator-activated receptor gamma (PPARg) and nuclear receptor co-repressor 2 (NCOR2).; assay type: functional
[13] = molecular target: T5, Photoreceptor-specific nuclear receptor (Homo sapiens, UniProt Q9Y5X4); experiment: ligands suppressing NR2E3 nuclear receptor activity – biochemical, TR-FRET, dose response (AID 463256); assay type: functional
[14] = molecular target: T4, Peroxisome proliferator-activated receptor gamma/Nuclear receptor corepressor 2; assay type: functional
[15] = molecular target: Benomyl/methotrexate resistance protein (Candida albicans, UniProt P28873); experiment: Candida albicans Mdr1 pump inhibition curves – singleplex, Cherry Pick1 hits, dose response (AID 588608); assay type: functional
[16] = molecular target: Induced myeloid leukemia cell differentiation protein Mcl-1 (Homo sapiens, UniProt Q07820); assay type: functional
Large T antigen = Large T antigen (Simian virus 40, UniProt P03070); assay type: functional, Betapolyomavirus macacae;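 also: Confirmatory-stage PubChem screen for compounds that inhibit SV40 T antigen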
[17] = molecular target: T5, Photoreceptor-specific nuclear receptor; assay type: functional
NADPH oxidase 1 = molecular target: T6, NADPH oxidase 1 (Homo sapiens, UniProt Q9Y5S8); assay type: functional, cell-based;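 also: Cell-based assay with luminescence read-out, IC50 derived from inhibitor dose-response curves; intracellular ROS from endogenous NOX1 in intact HT29 colon cancer cells; potency of inhibitors that lower the ROS luminescence signal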
T6 sequence (Q9Y5S8 whole entry): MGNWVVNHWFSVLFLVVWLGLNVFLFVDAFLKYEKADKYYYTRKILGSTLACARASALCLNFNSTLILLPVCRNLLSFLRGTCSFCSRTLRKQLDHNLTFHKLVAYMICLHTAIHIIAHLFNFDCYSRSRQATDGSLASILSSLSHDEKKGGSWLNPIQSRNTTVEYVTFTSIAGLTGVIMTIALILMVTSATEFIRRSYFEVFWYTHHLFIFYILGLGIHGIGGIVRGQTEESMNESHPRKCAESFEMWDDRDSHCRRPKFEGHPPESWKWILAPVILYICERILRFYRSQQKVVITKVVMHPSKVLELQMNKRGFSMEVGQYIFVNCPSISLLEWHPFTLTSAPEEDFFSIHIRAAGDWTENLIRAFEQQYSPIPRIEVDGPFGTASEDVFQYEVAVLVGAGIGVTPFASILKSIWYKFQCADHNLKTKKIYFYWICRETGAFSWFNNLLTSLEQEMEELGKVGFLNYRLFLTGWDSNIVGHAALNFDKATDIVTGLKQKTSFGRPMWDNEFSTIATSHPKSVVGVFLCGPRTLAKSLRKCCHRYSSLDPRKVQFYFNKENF

Cytochrome P450 3A4 = Cytochrome P450 3A4 (Homo sapiens, UniProt P08684); details: Potency;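 also: confirmatory qHTS run detecting inhibitors and substrates of CYP3A4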
Cytochrome P450 2C9 = Cytochrome P450 2C9 (Homo sapiens, UniProt P11712); details: Potency
Chain of Cytochrome P450 2C9 (P11712 whole entry): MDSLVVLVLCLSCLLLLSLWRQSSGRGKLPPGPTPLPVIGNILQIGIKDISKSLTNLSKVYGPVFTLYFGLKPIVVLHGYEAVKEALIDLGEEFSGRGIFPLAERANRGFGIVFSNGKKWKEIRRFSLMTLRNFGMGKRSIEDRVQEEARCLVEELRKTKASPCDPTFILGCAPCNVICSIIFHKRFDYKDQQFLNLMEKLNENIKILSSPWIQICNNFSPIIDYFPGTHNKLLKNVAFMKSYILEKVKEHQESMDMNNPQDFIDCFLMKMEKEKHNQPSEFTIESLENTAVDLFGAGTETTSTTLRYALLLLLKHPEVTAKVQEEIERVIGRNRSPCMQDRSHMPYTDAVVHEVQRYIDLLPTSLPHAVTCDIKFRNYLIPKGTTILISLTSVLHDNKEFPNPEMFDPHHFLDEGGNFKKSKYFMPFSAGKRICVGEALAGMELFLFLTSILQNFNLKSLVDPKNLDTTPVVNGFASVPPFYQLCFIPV

Chain of Cytochrome P450 2D6 (P10635 whole entry): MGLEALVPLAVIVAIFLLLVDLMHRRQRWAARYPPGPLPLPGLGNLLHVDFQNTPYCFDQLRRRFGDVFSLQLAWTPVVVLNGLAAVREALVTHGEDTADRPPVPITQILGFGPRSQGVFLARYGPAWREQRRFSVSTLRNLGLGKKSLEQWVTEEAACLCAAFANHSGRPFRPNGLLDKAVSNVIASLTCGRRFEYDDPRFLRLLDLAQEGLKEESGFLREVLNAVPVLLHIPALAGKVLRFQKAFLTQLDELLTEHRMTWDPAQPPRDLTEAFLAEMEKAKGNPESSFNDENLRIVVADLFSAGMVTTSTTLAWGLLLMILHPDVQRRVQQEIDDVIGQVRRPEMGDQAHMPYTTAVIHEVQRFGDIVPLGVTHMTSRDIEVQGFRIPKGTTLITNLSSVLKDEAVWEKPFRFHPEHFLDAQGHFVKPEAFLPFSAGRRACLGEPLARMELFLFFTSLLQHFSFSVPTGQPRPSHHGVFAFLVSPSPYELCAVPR
T5 sequence (Q9Y5X4 whole entry): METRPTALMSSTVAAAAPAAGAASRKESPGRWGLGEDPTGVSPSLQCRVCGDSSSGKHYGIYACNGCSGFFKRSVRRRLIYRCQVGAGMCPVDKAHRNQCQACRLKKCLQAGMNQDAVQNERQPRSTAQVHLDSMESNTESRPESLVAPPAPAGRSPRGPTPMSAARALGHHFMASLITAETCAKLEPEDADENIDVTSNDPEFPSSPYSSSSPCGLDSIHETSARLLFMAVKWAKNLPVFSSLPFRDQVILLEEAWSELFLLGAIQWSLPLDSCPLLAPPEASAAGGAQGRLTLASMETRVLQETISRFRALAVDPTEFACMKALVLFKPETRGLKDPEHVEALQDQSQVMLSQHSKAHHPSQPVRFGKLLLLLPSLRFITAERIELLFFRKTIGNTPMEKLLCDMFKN
T4 sequence (P37231 whole entry): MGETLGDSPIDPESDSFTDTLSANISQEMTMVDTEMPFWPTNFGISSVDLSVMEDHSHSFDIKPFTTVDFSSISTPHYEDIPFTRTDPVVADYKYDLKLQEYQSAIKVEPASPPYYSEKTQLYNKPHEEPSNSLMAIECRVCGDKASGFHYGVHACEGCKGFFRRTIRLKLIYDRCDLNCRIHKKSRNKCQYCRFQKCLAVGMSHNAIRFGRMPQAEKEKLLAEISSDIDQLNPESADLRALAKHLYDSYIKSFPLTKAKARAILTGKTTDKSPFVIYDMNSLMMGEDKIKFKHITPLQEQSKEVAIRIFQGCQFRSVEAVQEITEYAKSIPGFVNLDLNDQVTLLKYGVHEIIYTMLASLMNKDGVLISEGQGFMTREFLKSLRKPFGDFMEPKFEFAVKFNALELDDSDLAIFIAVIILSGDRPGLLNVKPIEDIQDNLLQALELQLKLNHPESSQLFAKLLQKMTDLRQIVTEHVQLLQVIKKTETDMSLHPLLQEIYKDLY
T4 sequence (Q9Y618 whole entry): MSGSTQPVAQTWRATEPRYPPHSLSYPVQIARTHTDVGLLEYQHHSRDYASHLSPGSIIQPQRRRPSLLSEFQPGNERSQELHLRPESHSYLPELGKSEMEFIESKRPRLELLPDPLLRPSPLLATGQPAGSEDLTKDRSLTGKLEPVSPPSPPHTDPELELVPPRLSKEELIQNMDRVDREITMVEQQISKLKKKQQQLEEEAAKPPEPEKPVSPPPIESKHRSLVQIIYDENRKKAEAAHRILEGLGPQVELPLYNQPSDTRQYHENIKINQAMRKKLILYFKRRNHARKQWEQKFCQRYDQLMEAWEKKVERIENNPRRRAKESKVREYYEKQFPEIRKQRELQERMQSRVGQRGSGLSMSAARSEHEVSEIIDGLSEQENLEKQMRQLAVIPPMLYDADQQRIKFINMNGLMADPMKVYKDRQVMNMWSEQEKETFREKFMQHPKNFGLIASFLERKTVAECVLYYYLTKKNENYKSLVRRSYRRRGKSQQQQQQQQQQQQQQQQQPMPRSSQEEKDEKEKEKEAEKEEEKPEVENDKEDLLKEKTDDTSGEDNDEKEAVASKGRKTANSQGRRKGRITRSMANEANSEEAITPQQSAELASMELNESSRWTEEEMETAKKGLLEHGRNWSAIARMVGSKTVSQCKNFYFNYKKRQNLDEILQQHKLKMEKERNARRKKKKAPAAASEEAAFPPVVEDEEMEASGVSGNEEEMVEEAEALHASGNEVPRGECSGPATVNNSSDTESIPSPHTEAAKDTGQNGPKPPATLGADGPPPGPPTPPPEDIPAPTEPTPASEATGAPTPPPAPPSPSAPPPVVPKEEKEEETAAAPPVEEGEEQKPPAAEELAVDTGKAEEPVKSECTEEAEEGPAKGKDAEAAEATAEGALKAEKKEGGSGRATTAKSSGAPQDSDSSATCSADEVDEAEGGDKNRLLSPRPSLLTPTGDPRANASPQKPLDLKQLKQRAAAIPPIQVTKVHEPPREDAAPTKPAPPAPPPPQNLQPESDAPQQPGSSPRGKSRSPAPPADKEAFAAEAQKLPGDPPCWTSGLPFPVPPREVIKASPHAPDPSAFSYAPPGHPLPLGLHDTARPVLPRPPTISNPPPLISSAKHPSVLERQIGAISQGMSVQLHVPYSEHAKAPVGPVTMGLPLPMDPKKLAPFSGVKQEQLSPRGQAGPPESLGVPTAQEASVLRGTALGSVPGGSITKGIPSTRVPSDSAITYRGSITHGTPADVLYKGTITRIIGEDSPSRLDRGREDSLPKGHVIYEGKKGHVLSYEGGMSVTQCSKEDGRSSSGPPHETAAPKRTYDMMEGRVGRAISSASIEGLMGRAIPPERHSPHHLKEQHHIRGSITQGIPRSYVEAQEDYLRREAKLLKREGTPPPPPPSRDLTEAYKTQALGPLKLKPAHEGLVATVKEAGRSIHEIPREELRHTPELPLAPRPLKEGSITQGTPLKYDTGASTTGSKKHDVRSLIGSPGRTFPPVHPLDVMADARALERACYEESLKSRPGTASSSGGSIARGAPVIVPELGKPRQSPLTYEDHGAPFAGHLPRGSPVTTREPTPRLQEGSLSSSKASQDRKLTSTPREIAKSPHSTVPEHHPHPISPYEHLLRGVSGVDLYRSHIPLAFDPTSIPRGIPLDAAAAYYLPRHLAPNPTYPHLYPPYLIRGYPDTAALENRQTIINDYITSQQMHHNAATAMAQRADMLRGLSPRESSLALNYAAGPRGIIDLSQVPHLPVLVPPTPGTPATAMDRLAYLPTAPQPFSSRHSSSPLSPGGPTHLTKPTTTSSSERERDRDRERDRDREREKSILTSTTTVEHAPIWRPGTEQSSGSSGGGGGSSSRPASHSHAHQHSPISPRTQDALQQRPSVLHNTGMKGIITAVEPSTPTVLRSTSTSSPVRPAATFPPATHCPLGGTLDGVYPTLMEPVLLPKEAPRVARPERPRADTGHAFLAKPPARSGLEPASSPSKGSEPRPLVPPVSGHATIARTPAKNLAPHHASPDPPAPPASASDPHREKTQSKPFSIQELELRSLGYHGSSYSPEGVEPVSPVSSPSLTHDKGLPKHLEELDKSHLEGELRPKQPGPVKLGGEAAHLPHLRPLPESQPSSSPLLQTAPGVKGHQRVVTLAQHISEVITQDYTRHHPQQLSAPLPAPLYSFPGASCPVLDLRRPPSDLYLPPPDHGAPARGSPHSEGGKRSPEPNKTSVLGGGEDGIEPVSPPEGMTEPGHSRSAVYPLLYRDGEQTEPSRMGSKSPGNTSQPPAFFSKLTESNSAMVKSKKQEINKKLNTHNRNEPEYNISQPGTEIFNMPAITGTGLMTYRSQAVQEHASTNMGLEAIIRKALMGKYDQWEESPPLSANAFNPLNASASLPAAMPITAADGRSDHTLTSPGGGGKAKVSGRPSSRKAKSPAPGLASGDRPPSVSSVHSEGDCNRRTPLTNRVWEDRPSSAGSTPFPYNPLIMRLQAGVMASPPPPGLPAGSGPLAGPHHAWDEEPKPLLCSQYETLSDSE
Chain of Cytochrome P450 3A4 (P08684 whole entry): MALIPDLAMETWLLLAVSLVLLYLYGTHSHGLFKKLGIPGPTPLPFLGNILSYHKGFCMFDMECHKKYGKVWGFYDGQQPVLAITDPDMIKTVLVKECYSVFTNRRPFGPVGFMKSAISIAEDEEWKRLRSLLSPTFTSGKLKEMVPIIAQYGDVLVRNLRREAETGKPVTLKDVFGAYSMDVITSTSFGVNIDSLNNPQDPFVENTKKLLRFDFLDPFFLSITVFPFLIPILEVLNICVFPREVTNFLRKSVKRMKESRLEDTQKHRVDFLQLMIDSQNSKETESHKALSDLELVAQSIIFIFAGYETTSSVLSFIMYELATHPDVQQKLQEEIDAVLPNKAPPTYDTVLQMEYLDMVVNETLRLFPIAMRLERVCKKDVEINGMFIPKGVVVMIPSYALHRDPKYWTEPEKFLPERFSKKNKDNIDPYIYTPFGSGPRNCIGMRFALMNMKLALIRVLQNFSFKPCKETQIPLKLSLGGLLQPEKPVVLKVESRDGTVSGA

In the case of `O=C(/C=C(/c1ccc(Cl)cc1)n1cncn1)c1ccccc1`, the EC50 [1] is reported as > 12 µM (not active), the EC50 [2] is reported as > 12 µM (not active) and the EC50 [3] is reported as > 120 µM (not active). For the same compound, the EC50 [4] was > 12 µM (not active), the EC50 (H4) was > 120 µM (not active) and the EC50 [5] was > 120 µM (not active).
With `CC(C)Cn1c(S(=O)(=O)O)nc2ccccc21` the EC50 [6] was > 55.7 µM (not active) and the EC50 [7] was > 55.7 µM (not active).
In the case of `Cc1ccc(Cl)cc1NC(=O)Nn1cnnc1`, the IC50 (Procathepsin L) is reported as > 59.6 µM (not active) and the IC50 (Aspartyl aminopeptidase) is reported as 1.7 µM (active).
For `Cc1cccc(NC(=O)C2SC(Nc3c(C)cccc3C)=C(C(=O)N3CCOCC3)C2=N)c1` (stereo not given), the EC50 [8] was > 195 µM (not active), the EC50 (Streptokinase A) was 3.32 µM (active) and the EC50 (Streptococcus [9]) was > 150 µM (not active). The EC50 (Streptococcus [10]) was 4.32 µM (active) and the EC50 [11] was 0.959 µM (active).
For `Cc1cc(F)ccc1OC1C=CC(c2ccc3c(c2)OCO3)OC1CO` (stereo not given), the AC50 (Cytochrome P450 2D6) was 3.98 µM (inconclusive).
With `Cc1cc(C)c2nc(SCC(=O)NCCC3=CCCCC3)cc(C)c2c1` the IC50 [12] was > 39.8 µM (not active) and the IC50 [13] was > 39.8 µM (not active).
For `CCCOC(=O)CCCN1C(=O)/C(=C2\SC(=S)N(CCCC(=O)OCCC)C2=O)SC1=S`, the EC50 [6] was > 55.7 µM (not active) and the EC50 [7] was > 55.7 µM (not active).
For `Cc1ccc(-c2c3c([nH]c(=S)c2C#N)CCCC3)o1`, the IC50 [14] was 1.72 µM (active), the EC50 [15] was 6.14 µM (active) and the IC50 [16] was 2.4 µM (active). The IC50 (Large T antigen) was 35.4 µM (active) and the IC50 [17] was 1.09 µM (active).
With `O=C(CSc1ccc(Cl)cc1)N1c2ccccc2Sc2ccccc21` the EC50 (Streptococcus [10]) was > 500 µM (not active).
For `Cc1cc(/C=N/NC(=O)c2cccc(F)c2)c(C)n1-c1ccccc1`, the EC50 [1] was 0.849 µM (active), the EC50 [2] was 2.7 µM (active) and the EC50 [3] was < 0.1 µM (inconclusive). For the same compound, the EC50 [4] was 0.217 µM (active) and the EC50 (H4) was > 120 µM (not active).
For `c1ccc(-c2nc(-c3ccco3)[nH]c2-c2ccccc2)cc1`, the IC50 (NADPH oxidase 1) was > 17 µM (not active).
With `COc1cc2ccc(=O)oc2c(O)c1OCC=C(C)C` [CAPENSIN] the AC50 (Cytochrome P450 3A4) was 12.6 µM (inconclusive), the AC50 (Cytochrome P450 2D6) was 25.1 µM (inconclusive) and the AC50 (Cytochrome P450 2C9) was 31.6 µM (inconclusive).

From ChEMBL document CHEMBL1201862, “PubChem BioAssay data set” (2004)
